Consider four molecules from patent US9957428B2 (priority 2013, dated 2018).

The format of data set [1] is physicochemical.
The format of data set [2] is physicochemical. The source holds these as a separate data set.

The structures appear in SMILES notation. Where two headings read alike, the source gives them in different places.

As for `CCOC(F)(C(F)(F)C(F)(F)C(F)(F)F)C(F)(C(F)(F)F)C(F)(F)F` (stereo not shown) [Novec 7500], the Cp in data set [1] (Temperature 15 ° C.) is recorded as 1.08 J/(g · ° C.); in data set [1] (Temperature 20 ° C.), 1.09 J/(g · ° C.); in data set [1] (Temperature 25 ° C.), 1.10 J/(g · ° C.); in data set [1] (Temperature 30 ° C.), 1.11 J/(g · ° C.); in data set [1] (Temperature 35 ° C.) it was 1.12 J/(g · ° C.); in data set [1] (Temperature 40 ° C.), 1.13 J/(g · ° C.).

For `FC(=C(F)C(F)(F)F)N(C(F)(F)F)C(F)(F)F` [Preparatory Example 1, 1,2,3,3,3-pentafluoro-N,N-bis(trifluoromethyl)prop-1-en-1-amine], the “Vapor Pressure at 68° F.(20° C.)” value amounted to 50.9 mm Hg. The “Kinematic Viscosity” value in data set [2] (Temp 0.0 °C) worked out at 0.91 cS. In addition, the “Kinematic Viscosity” value in data set [2] (Temp 25.0 °C) was determined as 0.58 cS. The “Kinematic Viscosity” value in data set [2] (Temp 30.0 °C) is reported as 0.54 cS. Besides, the “Kinematic Viscosity” value in data set [2] (Temp 40.0 °C) turned out to be 0.48 cS. In data set [2] (Temp 50.0 °C), the “Kinematic Viscosity” value is on record as 0.42 cS. For the same molecule, the “Kinematic Viscosity” value in data set [2] (Temp 60.0 °C) came out at 0.38 cS. The Cp in data set [1] (Temperature 15 ° C.) is recorded as 1.25 J/(g · ° C.). In addition, in data set [1] (Temperature 20 ° C.), the Cp is 1.27 J/(g · ° C.). Besides, the Cp in data set [1] (Temperature 25 ° C.) is 1.28 J/(g · ° C.). Besides, the Cp in data set [1] (Temperature 30 ° C.) is given as 1.30 J/(g · ° C.). For the same molecule, the Cp in data set [1] (Temperature 35 ° C.) is 1.32 J/(g · ° C.). Further, the Cp in data set [1] (Temperature 40 ° C.) is on record as 1.34 J/(g · ° C.).

For `F/C(=C(/F)C(F)(F)F)N1C(F)(F)C(F)(F)OC(F)(F)C1(F)F` [Preparatory Example 2, 2,2,3,3,5,5,6,6-octafluoro-4-(1,2,3,3,3-pentafluoroprop-1-enyl)morpholine], the Cp is given as 1.09 J/(g · ° C.) in data set [1] (Temperature 15 ° C.); 1.10 J/(g · ° C.) in data set [1] (Temperature 20 ° C.); 1.11 J/(g · ° C.) in data set [1] (Temperature 25 ° C.); 1.12 J/(g · ° C.) in data set [1] (Temperature 30 ° C.); 1.13 J/(g · ° C.) in data set [1] (Temperature 35 ° C.); 1.14 J/(g · ° C.) in data set [1] (Temperature 40 ° C.).

With `FC(=C(F)C(F)(F)F)N(C(F)(F)F)C(F)(F)C(F)(F)F` [Preparatory Example 5, 1,2,3,3,3-pentafluoro-N-(1,1,2,2,2-pentafluoroethyl)-N-(trifluoromethyl)prop-1-en-1-amine], the Cp in data set [1] (Temperature 15 ° C.) was 1.18 J/(g · ° C.); in data set [1] (Temperature 20 ° C.), 1.20 J/(g · ° C.); in data set [1] (Temperature 25 ° C.), 1.21 J/(g · ° C.); in data set [1] (Temperature 30 ° C.) it was 1.22 J/(g · ° C.); in data set [1] (Temperature 35 ° C.), 1.23 J/(g · ° C.); in data set [1] (Temperature 40 ° C.) it was 1.24 J/(g · ° C.).
